Results on 7 molecules are retold here after patent publication US12449422B2, “Method and composition matter for immunoproteasome-mediated delivery into living cells” (Purdue Research Foundation, priority 2019, dated 2025).

No end group written: not given here.

Data set [1] concerns A549 cells. The data set can be described thus: Cell Titer-Glo luminescent cell viability assay. It is filed as cell-based. The protocol: A549 cells were treated with 5 ng/mL IFN-γ for 4 days then split into a black 96-well plate at a density of 5,000 cells/well along with non-IFN-γ treated cells. Cells were allowed to adhere overnight before performing assays. The media was removed and fresh media (50 μL) was added to each well. Each probe was added to each well at the corresponding concentration and the plate was returned to the incubator for the given amount of time. To remove any signal due to FBS in the media, the media was removed and cells were washed with PBS (3 times). After the final wash, PBS (50 μL) was added to each well. The plate was incubated at 37° C. in the plate reader, monitoring the change in fluorescence (Ex—485(20) nm, Em—535(20) nm for Rh-probes; gain=90). Samples were run in five replicates and any outliers (outside the range of average±standard deviation) were removed (no more than two replicates per sample were removed). […] To ensure that observed differences in fluorescence were not due to a difference in total cells or cell viability, a Cell Titer-Glo® luminescent cell viability assay (Promega) was performed in a separate white 96 well plate using the same conditions per the manufacturer's protocol. Luminescence was recorded using a BioTek Synergy™ Neo2 Multimode Microplate Reader. […]

The test system of the next data set is IFN-γ treated A549 cells. The data set can be described thus: Confocal imaging with TBZ1. Type of data set: cell-based. The conditions noted are these: 31 μM TBZ1, one hour, vs DMSO. The protocol:
As an additional way to visualize the cells treated with TBZ1, we analyzed IFN-γ cells using confocal microscopy. Following a similar procedure as the plate reader assay, IFN-γ treated cells were plated on glass coverslip chambers coated with poly-D-lysine and were dosed with TBZ1 (31 μM) or DMSO for one hour. After washing, the cells were returned to the incubator for 30 min before staining with Super Bright 436 HLA-A, B, C antibody to serve as a membrane marker.
After four days of treatment with IFN-γ, A549 cells were plated into 8-well chambered coverglass plates that had been coated with poly-d-lysine (20,000 cells/well). The cells were allowed to adhere overnight then washed once with PBS. Fresh media including 31 μM TBZ1 was added to wells in triplicate and incubated for one hour. After incubation, the cells were washed with PBS (3 times) then kept in 200 μL modified Krebs-Ringer buffer (134 mM NaCl, 3.5 mM KCl, 1.2 mM K2HPO4·3H2O, 0.5 mM MgSO4·7H2O, 1.5 mM CaCl2·2H2O, 5 mM NaHCO3 and 10 mM HEPES, pH 7.4). The samples were returned to the incubator. After 30 min, Super Bright 436 HLA-ABC monoclonal antibody (ThermoFisher #62-9983-42) was added to each well (1 μL/well, 0.1 μg) and the samples were returned to the incubator for an additional 30 min. The samples were again washed with PBS and suspended in modified Krebs-Ringer buffer (200 μL) for imaging. […]

The target of data set [2] is T1, sCP (Homo sapiens, UniProt P28074).
T1 construct: purchased Boston Biochem
The data set can be described thus: LC/MS analysis of TBZ1 cleavage with purified sCP. The conditions noted are these: 31 μM, 9 nM sCP, 55 min, 37° C. It is filed as biochemical. The source says:
(§1) We first analyzed TBZ1 in the same conditions as the biochemical assay without any iCP to confirm there was not any non-specific degradation occurring during the LC/MS run. In this, we only observed the two isomers of our probe. After treatment with the iCP, we observed two new peaks in the TIC spectrum. These corresponded to the expected Rh-peptoid and peptide fragments. The full mass of TBZ1 was extracted from each triplicate and compared between iCP and sCP samples. […] When this analysis was performed using sCP, we observed that 77% remained uncleaved.
(§2) In the same way as the biochemical assays (FIG. 11), TBZ1 (31 μM) was incubated at 37° C. with or without purified proteasome (9 nM) in 50 mM tris HCl buffer (pH 7.6) for 55 min in triplicate. After incubation, samples were quenched by adding 50 μL of HPLC-grade acetonitrile. The samples were dried under vacuum then resuspended in 50/50 water/acetonitrile with 0.1% formic acid (100 μL). Samples (50 μL) were analyzed by LC/MS (Agilent 1260 Infinity II with a Zorbax Eclipse Plus C18 column, 2.1×50 mm, 1.8-micron attached to an Agilent 6129 quadrupole mass spectrometer). […] Percent TBZ1 remaining in treated samples was determined by comparing the averages of untreated vs. treated samples.

Data set [3] deals with A549 cells. The data set can be described thus: Flow cytometry with TBZ1. The conditions noted are these: 31 μM TBZ1, preliminary, single replicate. It is filed as cell-based. On the procedure:
A549 cells untreated and treated with IFN-γ were each plated into 4 wells of a 12-well plate at 300,000 cells/well. The cells were allowed to adhere overnight. To each well was added fresh media (500 μL) with either DMSO alone or TBZ1 (final concentration=31 μM). The plate was returned to the incubator for an hour. The cells were then washed with PBS (3 times). The plate was incubated for an additional hour in PBS. The cells were removed from each well using trypsin-EDTA solution. After centrifuging and removing the media, the cells were resuspended in PBS. Samples were mixed at a ratio of 1:1 -IFN-γ to +IFN-γ cells then all three samples were analyzed by flow cytometry using a Guava EasyCyte instrument with Guava CytoSoft™ software. Samples were excited with a 488 nm laser and fluorescence intensity was recorded from the 525 nm filter cube. Image analysis was performed using FlowJo v10. Data shown in FIG. 17 is of a single replicate.

The target in data set [4] is T2, iCP (Homo sapiens, UniProt P28062).
T2 construct: purchased Boston Biochem
Nature of the data set: LC/MS analysis of TBZ1 cleavage with purified iCP. It is filed as biochemical. The conditions noted are these: 31 μM, 9 nM iCP, 55 min, 37° C.
Description: as §1, §2

The subject of data set [5] is A549 cells. Nature of the data set: Cellular assay with TBZ1, plate-reader fluorescence. It is filed as cell-based. The following applies: 31 μM TBZ1, 15 and 60 min. The protocol: To determine the selectivity of TBZ1 in cells, both untreated cells and cells treated with IFN-γ were plated at the same cell density into a 96-well plate for fluorescence readouts. After allowing sufficient time for the cells to adhere to the wells, TBZ1 was added and allowed to incubate for various time points. Following the initial incubation, wells were washed with PBS to remove any probe that had not been taken up by the cells and the plate was incubated for an additional hour before the fluorescence was recorded. […] We initially intended to use TBZ4 as a way to confirm that the addition of a peptoid improved cell penetration and protease stability of TBZ1. […]
A549 cells were treated with 5 ng/mL IFN-γ for 4 days then split into a black 96-well plate at a density of 5,000 cells/well along with non-IFN-γ treated cells. […] The plate was incubated at 37° C. in the plate reader, monitoring the change in fluorescence (Ex—485(20) nm, Em—535(20) nm for Rh-probes; gain=90). […] To ensure that observed differences in fluorescence were not due to a difference in total cells or cell viability, a Cell Titer-Glo® luminescent cell viability assay (Promega) was performed in a separate white 96 well plate using the same conditions per the manufacturer's protocol. Luminescence was recorded using a BioTek Synergy™ Neo2 Multimode Microplate Reader. […]

Data set [6] has as its target T2, iCP. The data set can be described thus: Hit validation: LC/MS of OVA released from hit peptides by iCP. Type of data set: biochemical. The conditions noted are these: for iCP % Change OVA: 5.2 μM peptide, 4 nM iCP, 6 hours, 37° C., vs EIC of control peptide Ala-Ala-Ala-Phe-OVA; for Selectivity: iCP over sCP. The protocol: (§3) Validation assays were performed under similar conditions as the screen. Briefly, 5 μM of each hit peptide was incubated at 37° C. with 4 nM iCP for six hours in triplicate, then analyzed by LC/MS. All peptides were also analyzed under identical conditions using 4 nM sCP. This was done to confirm that our library design yielded the desired selectivity and not simply sequences that could be efficiently cleaved by either isoform. The mass of OVA was extracted and integrated for each sample, averaging the triplicates. […] Of the nine total hits, six validated successfully. Additionally, all validated hits had at least 1.4-fold selectivity for the iCP (FIG. 4C and FIG. 5). We chose to move forward with the sequence Ala-Thr-Met-Trp, as this not only had highly efficient cleavage by the iCP but also was close to 5-fold selective for the iCP compared to the sCP.
(§4) For validation, purified hit sequences (46 μL final concentration 5.2 μM) in 50 mM tris buffer, pH 7.6 were added to nine wells of a 96 well plate. To each triplicate, 4 μL of tris buffer, 50 nM iCP (final concentration 4 nM) or 50 nM sCP (final concentration 4 nM) was added. This was sealed and allowed to incubate for 6 hours at 37° C. HPLC-grade acetonitrile (50 μL) was added to each sample and the samples were then dried under vacuum. Dried samples were resuspended in 100 μL 50/50 water/acetonitrile with 0.1% formic acid. Each sample was then analyzed by LC/MS with an injection volume of 90 μL. The mass of OVA (887.0-887.9) was extracted. The peak at the same time point as the standard was then integrated and averaged over the triplicate for each sample. Percent change was considered for each triplicate in comparison to the EIC of the control peptide sequence (Ala-Ala-Ala-Phe-OVA). Raw data for integrated OVA peaks can be seen in FIG. 5. Each bar represents an average of triplicates with error bars given as the standard deviation.

Data set [7] addresses T1, sCP. Nature of the data set: Hit validation: LC/MS of OVA released from hit peptides by sCP. The following applies: 5.2 μM peptide, 4 nM sCP, 6 hours, 37° C.; vs EIC of control peptide Ala-Ala-Ala-Phe-OVA. It is filed as biochemical. The protocol:
as §3, §4

For data set [8], the target named is T2, iCP. The data set can be described thus: Biochemical assay with fluorogenic substrate probes and purified proteasome. The conditions noted are these: 31 μM probe, 9 nM proteasome, 37° C. The protocol:
Initially, we treated various concentrations of TBZ1 from 0-250 μM with both the iCP and sCP (FIG. 11). All concentrations were incubated at 37° C. with 9 nM of the respective proteasomes and the increase in fluorescence was monitored for 60 min at 1 min intervals. We found 31 μM of TBZ1 to give a favorable profile, maintaining about a 3:1 selectivity compared to the sCP (FIG. 6).
The remaining probes were studied at 31 μM and monitored for an increase in fluorescence over 30 minutes. […] Finally, we also sought to compare TBZ1 to the commercially available, iCP-selective substrate probe Ac-ANW-AMC.
Each probe was dissolved in DMSO at a proper stock concentration such that the final concentration of DMSO in the sample is 2%. For TBZ1, a two-fold serial dilution was performed to determine the optimal concentration for biochemical assays. Each stock was then diluted in 50 mM tris buffer, pH 7.6 (1 μL stock per 40 μL buffer) and added to a black 96 well plate in triplicate (41 μL per well). Stocks ([…] in 50 mM tris buffer, pH 7.6) of either iCP or sCP was added to each well (9 μL/well, final concentration=9 nM). The change in fluorescence (Ex—485(20) nm, Em—535(20) nm; gain=50) was monitored over time on a Tecan Infinite 200® Pro Microplate Reader. Data was plotted as the average of triplicate samples using GraphPad Prism 7 and can be found in FIG. 11. […]

Take `COc1ccc(C[C@H](NC(=O)[C@H](C)NC(=O)CN2CCOCC2)C(=O)N[C@@H](Cc2ccccc2)C(=O)C2(C)CO2)cc1` (stereo in doubt) [ONX-0914]: the “cell death with ONX-0914 (Cell Titer-Glo)” value in the data set with A549 cells [1] (ONX-0914 20 μM, IFN-γ treated A549 cells) is given as “not due to cell death”.

With `COCCCN(CC(=O)N(CCCN(C)C)CC(N)=O)C(=O)CN(CCCN(C)C)C(=O)CNC(=O)CCC(=O)Nc1ccc2c(c1)Oc1cc(NC(=O)[C@H](Cc3c[nH]c4ccccc34)NC(=O)[C@H](CCSC)NC(=O)[C@@H](NC(=O)[C@H](C)N)C(C)O)ccc1C21OC(=O)c2ccccc21` (stereo partly shown) [TBZ1], in the data set on IFN-γ treated A549 cells, the “intracellular staining by confocal microscopy” value is “increased staining due to probe cleavage within the cell”. Further, the “TBZ1 remaining uncleaved with sCP” value on sCP [2] stood at 77%. Moreover, in the data set with A549 cells [3], the “separation of cell populations by flow cytometry” value was “cell populations can be separated based on increasing amounts of iCP-expressing cells”. Also, the “uncleaved TBZ1 remaining in iCP samples” value on iCP [4] is listed as 31%. Also, in the data set with A549 cells [1] (untreated vs IFN-γ treated A549 cells), the “cell viability (Cell Titer-Glo) after TBZ1 treatment” value is “no significant difference”. Also, the “fluorescence signal in IFN-γ treated vs regular A549 cells” value in the data set on A549 cells [5] is given as “significantly increased signal for IFN-γ treated cells”.

With “Ala-Ala-Ala-Phe-OVA [reference compound]”, the “iCP % Change OVA” value on iCP [6] is 0%. Moreover, at iCP [6] (OVA released), the Selectivity came to 1.3. At sCP [7], the “sCP % Change OVA” value is reported as −25%.

His-Gly-Gly: on iCP [6], the “iCP % Change OVA” value is −82%. In addition, the Selectivity on iCP [6] (OVA released) is listed as 0.8. Besides, the “sCP % Change OVA” value on sCP [7] is listed as −78%.

Take “TBZ2 (AEPY; also: ['rhodamine probe conjugate with peptoid group'])”: the “change in fluorescence / cleavage by purified proteasome” value with iCP [8] is given as “very minimal fluorescence”.

Turning to TBZ4 (ATMW; also: rhodamine probe), in the data set with iCP [8], the “change in fluorescence / cleavage by purified proteasome” value is listed as “not as efficiently cleaved at TBZ1”.

As for “Thr-Met-Trp: hit peptide: N-terminal Ala, P3-P2-P1 Thr-Met-Trp, attached to modified OVA (ATMW; also: attached to modified OVA)”, in the data set with iCP [6], the “iCP % Change OVA” value was “+1502%”. Besides, the “selectivity for the iCP compared to the sCP” value in the data set with iCP [6] (hit validation, OVA released) is given as around 5 fold. In the data set with iCP [6] (OVA released), the Selectivity was 4.8. For the same molecule, the “sCP % Change OVA” value with sCP [7] is “+232%”.
